Measured values reported in patent publication US10899709B2, “Novel-alkynyl-substituted 3-phenylpyrrolidine-2,4-diones and use thereof as herbicides” (BAYER CROPSCIENCE AKTIENGESELLSCHAFT, priority 2015, dated 2021).

Experiments:
Assay type in all cases: in vivo
Alopecurus myosuroides [1] = experiment: Pre-emergence herbicidal effect; conditions: visual score after 3 weeks
Description: (§1) Seeds of monocotyledonous and dicotyledonous weed plants and crop plants are laid out in wood-fibre pots in sandy loam and covered with soil. The compounds according to the invention formulated in the form of wettable powders (WP) or as emulsion concentrates (EC) are then applied as aqueous suspension or emulsion at a water application rate of 600 to 800 l/ha (converted) with the addition of 0.2% wetting agent to the surface of the covering soil. After the treatment, the pots are placed in a greenhouse and kept under good growth conditions for the trial plants. The damage to the test plants is scored visually after a test period of 3 weeks by comparison with untreated controls (herbicidal activity in percent (%): 100% activity=the plants have died, 0% activity=like control plants).

Avena fatua [2] = experiment: Pre-emergence herbicidal effect; conditions: visual score after 3 weeks
Description: as §1

Cyperus esculentus = experiment: Pre-emergence herbicidal effect; conditions: 320 g/ha, visual score after 3 weeks
Description: as §1

Echinochloa crus-galli [3] = experiment: Pre-emergence herbicidal effect; conditions: visual score after 3 weeks
Description: as §1

Lolium multiflorum [4] = experiment: Pre-emergence herbicidal effect; conditions: visual score after 3 weeks
Description: as §1

Setaria viridis [5] = experiment: Pre-emergence herbicidal effect; conditions: visual score after 3 weeks
Description: as §1

Veronica persica = experiment: Pre-emergence herbicidal effect; conditions: 320 g/ha, visual score after 3 weeks
Description: as §1

Alopecurus myosuroides [6] = experiment: Post-emergence herbicidal effect; conditions: visual assessment after about 3 weeks
Method: (§2) Seeds of monocotyledonous and dicotyledonous weed and crop plants are laid out in sandy loam in wood-fibre pots, covered with soil and cultivated in a greenhouse under good growth conditions. 2 to 3 weeks after sowing, the test plants are treated at the one-leaf stage. The compounds according to the invention, formulated in the form of wettable powders (WP) or as emulsion concentrates (EC), are then sprayed as aqueous suspension or emulsion at a water application rate of 600 to 800 l/ha (converted) with the addition of 0.2% of wetting agent onto the green parts of the plants. After the test plants have been left to stand in the greenhouse under optimal growth conditions for about 3 weeks, the action of the preparations is assessed visually in comparison to untreated controls (herbicidal action in percent (%): 100% activity=the plants have died, 0% activity=like control plants).

Avena fatua [7] = experiment: Post-emergence herbicidal effect; conditions: visual assessment after about 3 weeks
Method: as §2

Echinochloa crus-galli [8] = experiment: Post-emergence herbicidal effect; conditions: visual assessment after about 3 weeks
Method: as §2

Lolium multiflorum [9] = experiment: Post-emergence herbicidal effect; conditions: visual assessment after about 3 weeks
Method: as §2

Setaria viridis [10] = experiment: Post-emergence herbicidal effect; conditions: visual assessment after about 3 weeks
Method: as §2

SMILES | Pre-emergence effectiveness ALOMY (Alopecurus myosuroides [1]; 80 g/ha) | Pre-emergence effectiveness ALOMY (Alopecurus myosuroides [1]; 320 g/ha) | Pre-emergence effectiveness AVEFA (Avena fatua [2]; 80 g/ha) | Pre-emergence effectiveness AVEFA (Avena fatua [2]; 320 g/ha) | Pre-emergence effectiveness CYPES (Cyperus esculentus) | Pre-emergence effectiveness ECHCG (Echinochloa crus-galli [3]; 80 g/ha) | Pre-emergence effectiveness ECHCG (Echinochloa crus-galli [3]; 320 g/ha) | Pre-emergence effectiveness LOLMU (Lolium multiflorum [4]; 80 g/ha) | Pre-emergence effectiveness LOLMU (Lolium multiflorum [4]; 320 g/ha) | Pre-emergence effectiveness SETVI (Setaria viridis [5]; 80 g/ha) | Pre-emergence effectiveness SETVI (Setaria viridis [5]; 320 g/ha) | Pre-emergence effectiveness VERPE (Veronica persica) | Post-emergence effectiveness ALOMY (Alopecurus myosuroides [6]; 20 g/ha) | Post-emergence effectiveness ALOMY (Alopecurus myosuroides [6]; 80 g/ha) | Post-emergence effectiveness ECHCG (Echinochloa crus-galli [8]; 20 g/ha) | Post-emergence effectiveness ECHCG (Echinochloa crus-galli [8]; 80 g/ha) | Post-emergence effectiveness LOLMU (Lolium multiflorum [9]; 20 g/ha) | Post-emergence effectiveness LOLMU (Lolium multiflorum [9]; 80 g/ha) | Post-emergence effectiveness SETVI (Setaria viridis [10]; 20 g/ha) | Post-emergence effectiveness SETVI (Setaria viridis [10]; 80 g/ha) | also measured
CC#Cc1cc(C)c(C2=C(O)C3(CCC(CCOC)CC3)NC2=O)c(CC)c1 (stereo not shown) [Example I-2] | 100% | 100% | 80% | 100% | 100% | 100% | 100% | 100% | 100% | 100% | 100% | 100% | 90% | 100% | 100% | 100% | 90% | 100% | 100% | 100% | Post-emergence effectiveness AVEFA (Avena fatua [7]; 20 g/ha): 90%; Post-emergence effectiveness AVEFA (Avena fatua [7]; 80 g/ha): 100%
CCOC(=O)OC1=C(c2c(C)cc(C#CC3CC3)cc2CC)C(=O)N[C@]12CC[C@H](COC)C2 [Example Ia-1] | 90% | 100% | 80% | 90% | – | 100% | 100% | 100% | 100% | 100% | 100% | 90% | – | 80% | 90% | 100% | – | – | – | 90% | –
CCOC(=O)OC1=C(c2c(C)cc(C#CC3CC3)cc2C)C(=O)NC12CCC(COC)C2 (stereo not shown) [Example Ia-2] | 80% | 100% | – | – | 100% | 100% | 100% | – | 80% | 90% | 100% | – | – | – | – | 80% | – | – | – | 80% | –
CCc1cc(C#CC2CC2)cc(C)c1C1=C(OC(=O)C(C)C)C2(CCC(COC)C2)NC1=O (mixture of isomers) [Example Ia-10] | 90% | 100% | – | – | 80% | 100% | 100% | 80% | 100% | 90% | 100% | – | – | 80% | 90% | 90% | 80% | 90% | 100% | 100% | –
CC#Cc1cc(C)c(C2=C(OC(=O)C(C)C)C3(CCC(COC)C3)NC2=O)c(CC)c1 (stereo not shown) [Example Ia-8] | 100% | 100% | 90% | 90% | – | 100% | 100% | 100% | 100% | 80% | 100% | – | 100% | 100% | 100% | 100% | 100% | 100% | 100% | 100% | Post-emergence effectiveness AVEFA (Avena fatua [7]; 80 g/ha): 100%
